The values below come from patent publication US11180474B2 (BRISTOL-MYERS SQUIBB COMPANY, priority 2016, dated 2021).

Bounds are passed on as bounds.

For one experiment, the target named is T1, human TLR9 (Homo sapiens, UniProt Q9NR96).
T1 construct: host or cells: HEK-Blue cells
T1 sequence (Q9NR96 26-1032): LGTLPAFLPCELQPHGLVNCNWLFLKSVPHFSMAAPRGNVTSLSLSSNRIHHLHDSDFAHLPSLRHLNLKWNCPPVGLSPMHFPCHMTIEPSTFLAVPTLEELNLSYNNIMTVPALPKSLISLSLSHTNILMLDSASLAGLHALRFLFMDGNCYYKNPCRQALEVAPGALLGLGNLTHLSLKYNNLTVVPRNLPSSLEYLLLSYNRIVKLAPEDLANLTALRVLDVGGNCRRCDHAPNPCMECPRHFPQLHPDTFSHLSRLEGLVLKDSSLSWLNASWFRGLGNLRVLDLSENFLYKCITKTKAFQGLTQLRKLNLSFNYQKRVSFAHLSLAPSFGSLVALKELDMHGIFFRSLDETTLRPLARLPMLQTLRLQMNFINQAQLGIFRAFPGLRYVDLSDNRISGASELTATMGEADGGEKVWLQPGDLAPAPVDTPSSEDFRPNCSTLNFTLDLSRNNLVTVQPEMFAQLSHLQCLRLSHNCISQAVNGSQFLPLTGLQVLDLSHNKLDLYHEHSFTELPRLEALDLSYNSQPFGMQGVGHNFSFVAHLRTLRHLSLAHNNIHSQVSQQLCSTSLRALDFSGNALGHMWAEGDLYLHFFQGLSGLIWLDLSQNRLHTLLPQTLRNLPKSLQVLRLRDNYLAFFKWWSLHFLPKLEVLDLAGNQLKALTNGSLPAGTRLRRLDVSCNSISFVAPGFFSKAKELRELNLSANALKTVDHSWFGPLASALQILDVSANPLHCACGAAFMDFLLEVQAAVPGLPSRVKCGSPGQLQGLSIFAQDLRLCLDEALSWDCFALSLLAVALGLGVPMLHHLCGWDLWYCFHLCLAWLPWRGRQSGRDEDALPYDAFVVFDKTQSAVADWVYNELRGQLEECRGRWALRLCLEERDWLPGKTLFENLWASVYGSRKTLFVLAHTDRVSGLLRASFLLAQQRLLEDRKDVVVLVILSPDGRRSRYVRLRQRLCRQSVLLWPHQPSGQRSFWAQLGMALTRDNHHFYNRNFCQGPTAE
Briefly: TLR9 inhibition reporter assay (HEK-Blue cells, SEAP reporter, ODN2006 stimulation). The experiment is classed as cell-based. As to conditions: HEK-Blue cells overexpressing human TLR9, ODN2006 5 nM. An outline of the steps: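 Agonists used: gardiquimod 7.5 μM (TLR7), R848 15.9 μM (TLR8), ODN2006 5 nM (TLR9), added after 30 min room-temperature compound pre-treatment (0.05 nM–50 μM) of receptor-overexpressing HEK-Blue cells. SEAP reporter (NF-κB/AP-1 driven) read after 22 h at 37 °C; inhibition scaled between agonist+DMSO and reference-inhibitor wells.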
Background: A reporter such as luciferase makes a cellular process visible.

In the next experiment the target is T2, human TLR8 (Homo sapiens, UniProt Q9NR97).
T2 construct: host or cells: HEK-Blue cells
T2 sequence (Q9NR97 27-1041): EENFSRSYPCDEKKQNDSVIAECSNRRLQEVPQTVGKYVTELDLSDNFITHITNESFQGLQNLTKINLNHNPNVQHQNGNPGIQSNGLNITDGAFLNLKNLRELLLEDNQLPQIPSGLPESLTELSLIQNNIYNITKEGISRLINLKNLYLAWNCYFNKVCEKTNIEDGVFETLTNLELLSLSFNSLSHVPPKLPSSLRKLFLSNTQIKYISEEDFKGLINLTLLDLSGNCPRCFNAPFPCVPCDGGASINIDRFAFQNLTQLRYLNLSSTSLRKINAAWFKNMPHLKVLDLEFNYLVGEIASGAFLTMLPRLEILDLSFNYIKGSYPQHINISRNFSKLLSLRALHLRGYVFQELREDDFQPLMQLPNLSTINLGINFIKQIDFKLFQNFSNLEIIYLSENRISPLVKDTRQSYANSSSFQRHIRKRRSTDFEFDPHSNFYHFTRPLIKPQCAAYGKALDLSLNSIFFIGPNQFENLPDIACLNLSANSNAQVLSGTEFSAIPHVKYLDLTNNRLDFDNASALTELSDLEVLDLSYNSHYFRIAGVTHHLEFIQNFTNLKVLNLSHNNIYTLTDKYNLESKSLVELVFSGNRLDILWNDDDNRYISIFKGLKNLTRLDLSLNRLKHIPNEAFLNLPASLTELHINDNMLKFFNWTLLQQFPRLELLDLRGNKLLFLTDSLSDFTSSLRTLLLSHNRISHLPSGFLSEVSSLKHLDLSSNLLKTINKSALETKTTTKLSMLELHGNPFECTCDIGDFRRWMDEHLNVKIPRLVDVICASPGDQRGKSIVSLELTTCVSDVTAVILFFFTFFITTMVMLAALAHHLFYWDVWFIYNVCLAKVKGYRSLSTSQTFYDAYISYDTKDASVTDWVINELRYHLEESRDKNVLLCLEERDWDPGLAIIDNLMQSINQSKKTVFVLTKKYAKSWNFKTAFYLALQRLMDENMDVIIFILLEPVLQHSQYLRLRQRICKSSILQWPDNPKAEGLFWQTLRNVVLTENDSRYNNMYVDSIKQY
Briefly: TLR8 inhibition reporter assay (HEK-Blue cells, SEAP reporter, R848 stimulation). The format is cell-based. As to conditions: HEK-Blue cells overexpressing human TLR8, R848 15.9 μM. The essentials:
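HEK-Blue reporter cells (15,000/well TLR7, 20,000 TLR8) exposed to compound over 0.05 nM–50 μM, agonist-stimulated (R848 for TLR8, gardiquimod for TLR7), 22 h at 37 °C, 5% CO2. SEAP read with HEK-Blue Detection; % inhibition relative to agonist-plus-DMSO and known-inhibitor controls.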

As a reminder, the IC50 is the concentration that gives 50% inhibition. A high value points to a need for much substance.

Turning to `CCc1c(-c2ccc(OC)c(OC)c2)[nH]c2ccc(C3CCN(C4CCN(Cc5cc(C)n(C)n5)CC4)CC3)cc12` [Example 144, 2-(3,4-dimethoxyphenyl)-5-(1′-((1,5-dimethyl-1H-pyrazol-3-yl)methyl)-[1,4′-bipiperidin]-4-yl)-3-ethyl-1H-indole], the IC50 against human TLR9 turned out to be 495 nM; against human TLR8, 73 nM.

Turning to `CCc1c(-c2ccc(OC)c(OC)c2)[nH]c2ccc(C3CCN(C4CCN(Cc5ccccc5)CC4)CC3)cc12` [Example 147, 5-(1′-benzyl-[1,4′-bipiperidin]-4-yl)-2-(3,4-dimethoxyphenyl)-3-ethyl-1H-indole], the IC50 on human TLR9 was found to be 552 nM; against human TLR8 it was 101 nM.

In the case of `CCc1c(-c2ccc(OC)c(OC)c2)[nH]c2ccc(C3CCN(C4CCN(CC)CC4)CC3)cc12` [Example 149, 2-(3,4-dimethoxyphenyl)-3-ethyl-5-(1′-ethyl-[1,4′-bipiperidin]-4-yl)-1H-indole], the IC50 against human TLR9 stood at 152 nM; at human TLR8, 31 nM.

Consider `CCc1c(-c2ccc(OC)c(OC)c2)[nH]c2ccc(C3CCN(C4CCN(C)CC4)CC3)cc12` [Example 150, 2-(3,4-dimethoxyphenyl)-3-ethyl-5-(1′-methyl-[1,4′-bipiperidin]-4-yl)-1H-indole], for which the IC50 at human TLR9 came out at 2340 nM; against human TLR8 it was 1360 nM.

Regarding `CCc1c(-c2ccc(OC)c(OC)c2)[nH]c2ccc(C3CCN(C4CCN(C(C)C)CC4)CC3)cc12` [Example 151, 2-(3,4-dimethoxyphenyl)-3-ethyl-5-(1′-isopropyl-[1,4′-bipiperidin]-4-yl)-1H-indole], the IC50 against human TLR9 was 556 nM; against human TLR8, 403 nM.

As for `CCc1c(-c2ccc(OC)c(OC)c2)[nH]c2ccc(C3CCN(C4CCN(C5CCCC5)CC4)CC3)cc12` [Example 152, 5-(1′-cyclopentyl-[1,4′-bipiperidin]-4-yl)-2-(3,4-dimethoxyphenyl)-3-ethyl-1H-indole], the IC50 is 233 nM at human TLR9 and 33 nM at human TLR8.

`CCc1c(-c2ccc(OC)c(OC)c2)[nH]c2ccc(C3CCN(C4CCN(Cc5cnc(C)[nH]5)CC4)CC3)cc12` [Example 153, 2-(3,4-dimethoxyphenyl)-3-ethyl-5-(1′-((2-methyl-1H-imidazol-5-yl)methyl)-[1,4′-bipiperidin]-4-yl)-1H-indole]: the IC50 amounted to 547 nM against human TLR9 and 364 nM against human TLR8.

On to `CCc1c(-c2ccc(OC)c(OC)c2)[nH]c2ccc(C3CCN(CCNC)CC3)cc12` [Example 155, 2-(4-(2-(3,4-dimethoxyphenyl)-3-ethyl-1H-indol-5-yl)piperidin-1-yl)-N-methylethanamine di-trifluoroacetic acid], for which the values for the IC50 on human TLR9 and at human TLR8 were 492 nM and 29 nM, respectively.

Turning to `CCc1c(-c2ccc(OC)c(OC)c2)[nH]c2ccc(C3CCN(C(=O)CNCCO)CC3)cc12` [Example 159, 1-(4-(2-(3,4-dimethoxyphenyl)-3-ethyl-1H-indol-5-yl)piperidin-1-yl)-2-((2-hydroxyethyl)amino) ethan-1-one], the IC50 on human TLR9 is 3380 nM; at human TLR8, 26 nM.

Regarding `CCc1c(-c2ccc(OC)c(OC)c2)[nH]c2ccc(C3CCN(C(=O)CNCC#N)CC3)cc12` [Example 161, 2-((2-(4-(2-(3,4-dimethoxyphenyl)-3-ethyl-1H-indol-5-yl)piperidin-1-yl)-2-oxoethyl)amino)acetonitrile], the values for the IC50 against human TLR9 and against human TLR8 were ≥ 50000 nM and 332 nM, respectively.

Regarding `CCc1c(-c2ccc(OC)c(OC)c2)[nH]c2ccc(C3CCN(C(=O)CNC4CCC(N(C)C)CC4)CC3)cc12` (centres unmarked) [Example 162, 1-(4-(2-(3,4-dimethoxyphenyl)-3-ethyl-1H-indol-5-yl)piperidin-1-yl)-2-((4-(dimethylamino)cyclohexyl)amino)ethan-1-one], the IC50 is 402 nM on human TLR9 and 23 nM against human TLR8.

With `CCc1c(-c2ccc(OC)c(OC)c2)[nH]c2ccc(C3CCN(C(=O)CN4CCCC(C(=O)N(CC)CC)C4)CC3)cc12` (centres unmarked) [Example 168, 1-(2-(4-(2-(3,4-dimethoxyphenyl)-3-ethyl-1H-indol-5-yl)piperidin-1-yl)-2-oxoethyl)-N,N-diethylpiperidine-3-carboxamide], the IC50 came to 870 nM against human TLR9 and 41 nM against human TLR8.

In the case of `CCc1c(-c2ccc(OC)c(OC)c2)[nH]c2ccc(C3CCN(C(=O)CN4CC[C@@H](O)C4)CC3)cc12` [Example 173, (R)-1-(4-(2-(3,4-dimethoxyphenyl)-3-ethyl-1H-indol-5-yl)piperidin-1-yl)-2-(3-hydroxypyrrolidin-1-yl)ethan-1-one], the half-maximal inhibitory concentration (IC50) is 2240 nM on human TLR9 and 25 nM on human TLR8.

Consider `CCc1c(-c2ccc(OC)c(OC)c2)[nH]c2ccc(C3CCN(C(=O)C(C)(C)OC(C)=O)CC3)cc12` [Example 175, 1-(4-(2-(3,4-dimethoxyphenyl)-3-ethyl-1H-indol-5-yl)piperidin-1-yl)-2-methyl-1-oxopropan-2-yl acetate], for which the values for the IC50 against human TLR9 and against human TLR8 were 14100 nM and 2060 nM, respectively.

Regarding `CCc1c(-c2ccc(OC)c(OC)c2)[nH]c2ccc(C3CCN(C(=O)CNc4nccs4)CC3)cc12` [Example 177, 1-(4-(2-(3,4-dimethoxyphenyl)-3-ethyl-1H-indol-5-yl)piperidin-1-yl)-2-(thiazol-2-ylamino)ethanone], the IC50 turned out to be 3360 nM on human TLR9 and 36 nM at human TLR8.

With `CCc1c(-c2ccc(OC)c(OC)c2)[nH]c2ccc(C3CCN(CC(C)C(F)(F)F)CC3)cc12` (centres unmarked) [Example 180, 2-(3,4-dimethoxyphenyl)-3-ethyl-5-(1-(3,3,3-trifluoro-2-methylpropyl)piperidin-4-yl)-1H-indole], the IC50 on human TLR9 was ≥ 50000 nM; at human TLR8 it was 776 nM.

For the molecule `CCc1c(-c2ccc(OC)c(OC)c2)[nH]c2ccc(C3CCN(C(=O)CN(C)C)CC3)cc12` [Example 181, 1-(4-(2-(3,4-dimethoxyphenyl)-3-ethyl-1H-indol-5-yl)piperidin-1-yl)-2-(dimethylamino) ethanone], the IC50 against human TLR9 worked out at 2270 nM; on human TLR8, 66 nM.

Regarding `CCc1c(-c2ccc(OC)c(OC)c2)[nH]c2ccc(C3CCN(C(=O)c4ccncc4)CC3)cc12` [Example 183, (4-(2-(3,4-dimethoxyphenyl)-3-ethyl-1H-indol-5-yl)piperidin-1-yl)(pyridin-4-yl) methanone], the IC50 came out at 10200 nM at human TLR9 and 838 nM against human TLR8.

Consider `CCc1c(-c2ccc(OC)c(OC)c2)[nH]c2ccc(C3CCN(C(=O)C4CCCNC4)CC3)cc12` (centres unmarked) [Example 184, (4-(2-(3,4-dimethoxyphenyl)-3-ethyl-1H-indol-5-yl)piperidin-1-yl)(piperidin-3-yl)methanone], for which the IC50 is 2070 nM at human TLR9 and 136 nM against human TLR8.
